The target in the assay is Hsp90α (Homo sapiens, UniProt P07900). The assay is described as follows: Surface plasmon resonance binding to immobilized Hsp90α. The settings on record: SPR, 25 °C, mean ± standard deviation (n = 3). On the set-up: purchased Stress-gen Bioreagents Corporation, Victoria, Canada SPP-776. As to the method: 1 and 4 μM), and, for each sample, a complete binding study was carried out in triplicate. The experiments were performed at 25 °C, using a flow rate of 50 μL/min, with 60 s monitoring of association and 300 s monitoring of dissociation. Changes in mass, due to the binding response, were recorded as resonance units (RU). To obtain the dissociation constant (KD), these responses were fit to a 1:1 Langmuir binding model by nonlinear regression, using the BiaEvaluation sofware program (GE Healthcare). Simple interactions were suitably fitted to a single-site bimolecular interaction model (A + B = AB), yielding a single KD.
For the compound `C/C=C(\C)C(=O)O[C@@H]1/C=C\C2=C3CC(=O)O[C@@H](c4ccoc4)[C@]3(C)CC[C@]2(O)[C@]2(C)C(=O)C[C@@]1(C)[C@@H]2CC(=O)OC` (relative stereo) [Compound 3, (9R*)-hydroxychisomicine A], the KD result is given as “no binding”.

Turning to `C=C(C)C(=O)O[C@@H]1/C=C\[C@]2(O)C3=CC(=O)O[C@@H](c4ccoc4)[C@]3(C)CC[C@]2(O)[C@]2(C)C(=O)C[C@@]1(C)[C@@H]2CC(=O)OC` [Compound 2, chisomicine E], the KD result is “no binding”.

For `COC(=O)C[C@H]1C(C)(C)[C@H](OC(=O)C(O)C(C)C)[C@@H]2C=C3C4CC(=O)O[C@@H](c5ccoc5)[C@]4(C)CC[C@@H]3[C@@]1(C)C2=O` (some centres unmarked) [Compound 4, 3-(2′-hydroxyisovaleroyl)khasenegasin I], the KD entry is recorded as “no binding”.

For the compound `CC(=O)O[C@H]1C[C@@]2(C)[C@H](C3=CC(=O)O[C@@H]3O)OC(=O)[C@H]3O[C@]32[C@@]2(C)[C@H]1[C@@]1(C)C=CC(=O)OC(C)(C)[C@@H]1C[C@H]2OC(C)=O` [Compound 5, 7-deoxo-7α,11β-diacetoxykihadanin A], the KD entry was “no binding”.

On to `CC(=O)O[C@H]1C[C@@]2(C)[C@H](C3=CC(=O)O[C@@H]3O)OC(=O)[C@H]3O[C@]32[C@@]2(C)[C@H]1[C@@]1(C)[C@@H](OC(C)=O)CC(=O)OC(C)(C)[C@@H]1C[C@H]2OC(C)=O` [Compound 6, 1,2-dihydro-7-deoxo-1α,7α,11β-triacetoxykihadanin A], for which the KD entry is listed as “no binding”.

Consider `CC(=O)O[C@H]1CC(=O)OC(C)(C)[C@@H]2C[C@@H](OC(C)=O)[C@@]3(C)C4=CC[C@@H](C(O)(CO)CCO)[C@]4(C)CC[C@@H]3[C@@]12C` (some centres unmarked) [Compound 7, cedrelosin F], for which the KD entry is recorded as “no binding”.

A word on the Kd: it is the concentration at which binding is half-saturated. Lower therefore signals a tighter complex. In the case of `CC(=O)O[C@H]1C[C@@]2(C)[C@H](c3ccoc3)OC(=O)[C@H]3O[C@]32[C@]2(C)[C@H](O)C[C@H]3C(C)(C)O[C@H]4CC(=O)OC[C@]43[C@@H]12` [Compound 8, 11β-acetoxylimonol], the Kd turned out to be 24.8 ± 2.3 nM.

With `CC(=O)O[C@H]1C[C@@]2(C)[C@H](C3=C[C@@H](O)OC3=O)OC(=O)[C@H]3O[C@]32[C@@]2(C)[C@H]1[C@@]13COC(=O)C[C@@H]1OC(C)(C)[C@@H]3C[C@H]2OC(C)=O` [Compound 9, 11β-acetoxycedrelosin B], the KD result is “low affinity” and the Kd is 183 ± 18.9 nM.

Consider `CC(=O)O[C@H]1C[C@@]2(C)[C@H](c3ccoc3)OC(=O)[C@H]3O[C@]32[C@@]2(C)[C@H]1[C@@]1(C)[C@@H](OC(C)=O)CC(=O)OC(C)(C)[C@@H]1C[C@H]2OC(C)=O` [Compound 10, 7α,11β-diacetoxydihydronomilin], for which the KD result is “no binding”.

Compound `CC(=O)O[C@H]1C[C@@]2(C)[C@H](c3ccoc3)OC(=O)[C@H]3O[C@]32[C@@]2(C)[C@H]1[C@@]1(C)C=CC(=O)OC(C)(C)[C@@H]1C[C@H]2OC(C)=O` [Compound 11, 11β-acetoxybacunyl acetate] came in with an equilibrium dissociation constant (Kd) of 25.3 ± 1.8 nM.

Consider `COC(=O)C[C@H](OC(C)=O)[C@]1(C)[C@H]2[C@@H](OC(C)=O)C[C@@]3(C)[C@H](c4ccoc4)OC(=O)[C@H]4O[C@]43[C@]2(C)[C@H](OC(C)=O)C[C@H]1C(C)(C)O` [Compound 12, odoralide], for which the KD entry is “no binding”.

Consider `COC(=O)[C@@H](OC(C)=O)[C@H]1C(C)(C)[C@H](O)[C@@H]2CC3=C4CC(=O)O[C@@H](c5ccoc5)[C@]4(C)CC[C@@H]3[C@@]1(C)C2=O` [Compound 13, 6-O-acetylswietenolide], for which binding was put at a Kd of 25.5 ± 3.4 nM.

On to `COC(=O)C[C@H]1C(C)(C)[C@H](O)[C@@H]2CC3=C4CC(=O)O[C@@H](c5ccoc5)[C@]4(C)CC[C@@H]3[C@@]1(C)C2=O` [Compound 14, proceranolide], for which the KD entry is on record as “no binding”.
